Values quoted from earlier work as cited in patent publication US20120121615A1, “ALANINYL MAYTANSINOL ANTIBODY CONJUGATES” (priority 2010, published 2012).

## COc1cc2cc(c1Cl)N(C)C(=O)C[C@H](OC(=O)[C@H](C)N(C)C(C)=O)[C@]1(C)O[C@H]1[C@H](C)[C@@H]1C[C@@](O)(NC(=O)O1)[C@H](OC)/C=C/C=C(\C)C2 [maytansine]
2.0 mg/m^2 every 3 weeks, single dose or 3 consecutive days
  dose-limiting toxicity (DLT): gastrointestinal, consisting of nausea, vomiting, and diarrhea
At doses that could be safely delivered
  activity in the clinic: modest
